Reference: patent US10543212B2, “Substituted amines for treating cardiac diseases” (Cardurion Pharmaceuticals, LLC, priority 2017, dated 2020)
pIC50: −log10 of the molar value.

biological target: T1, Full-length, GST-tagged, human CaMKIIδ (Homo sapiens, UniProt Q13557); experiment: CaMKIIδ binding assay (TR-FRET with BODIPY-labeled probe ligand); conditions: CaMKIIδ binding assay, results of Table 2
T1 construct: Full-Length, Glutathione-S-Transferase(GST)-Tagged, Human CaMKIIδ was purchased from Carna Biosciences; purchased Carna Biosciences 02-111
T1 sequence (Q13557 1-478 isoform Q13557-12): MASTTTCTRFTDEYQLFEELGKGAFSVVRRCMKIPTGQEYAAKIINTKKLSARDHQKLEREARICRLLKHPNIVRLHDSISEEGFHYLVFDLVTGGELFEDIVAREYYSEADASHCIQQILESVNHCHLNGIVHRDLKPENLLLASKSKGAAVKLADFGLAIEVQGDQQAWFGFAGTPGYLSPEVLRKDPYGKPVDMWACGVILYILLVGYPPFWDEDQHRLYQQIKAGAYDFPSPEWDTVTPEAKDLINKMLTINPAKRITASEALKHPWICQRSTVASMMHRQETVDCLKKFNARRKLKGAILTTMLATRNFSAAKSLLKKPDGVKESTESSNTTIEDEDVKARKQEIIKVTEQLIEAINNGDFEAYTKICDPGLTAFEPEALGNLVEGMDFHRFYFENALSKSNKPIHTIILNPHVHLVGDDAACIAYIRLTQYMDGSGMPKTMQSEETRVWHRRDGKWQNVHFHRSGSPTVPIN
How it was run: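 TR-FRET probe-displacement binding: 0.5 nM GST-CaMKIIδ with 10 μg/mL calmodulin, 1 mM CaCl2, 0.21 nM Tb-anti-GST Ab and 300 nM BODIPY probe in HEPES pH 7.6 buffer. Eight-point 4-fold dilutions, 1 hr at room temperature. IC50 from logistic fit; 100% inhibition defined by 3 μM parent compound.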

Row | Compound | pIC50
1 | COc1cc(C)c(C(=O)N2CCOCC2)cc1Nc1ncc(-c2ccc(Cl)c(O[C@@H](C)Cn3cnnn3)c2)cn1 [Example 439, (S)-(5-((5-(3-((1-(1H-tetrazol-1-yl)propan-2-yl)oxy)-4-chlorophenyl)pyrimidin-2-yl)amino)-4-methoxy-2-methylphenyl)(morpholino)methanone] | > 8.00
2 | COc1cc(C2=CCN(C3COC3)CC2)c(C)cc1Nc1ncc(-c2ccc(Cl)c(O[C@@H](C)Cn3cnnn3)c2)cn1 [Example 531, (S)-5-(3-((1-(1H-tetrazol-1-yl)propan-2-yl)oxy)-4-chlorophenyl)-N-(2-methoxy-5-methyl-4-(1-(oxetan-3-yl)-1,2,3,6-tetrahydropyridin-4-yl)phenyl)pyrimidin-2-amine] | 7.00 to 8.00
3 | Cc1cc(N2CCC(N3CCOCC3)CC2)ccc1Nc1ncc(-c2ccc(Cl)c(O[C@@H](C)Cn3cnnn3)c2)cn1 [Example 453, (S)-5-(3-((1-(1H-tetrazol-1-yl)propan-2-yl)oxy)-4-chlorophenyl)-N-(2-methyl-4-(4-morpholinopiperidin-1-yl)phenyl)pyrimidin-2-amine] | > 8.00
4 | Cc1cnc(N2CCC(N3CCOCC3)CC2)cc1Nc1ncc(-c2ccc(C#N)c(O[C@@H](C)Cn3cnnn3)c2)cn1 [Example 509, (S)-2-((1-(1H-tetrazol-1-yl)propan-2-yl)oxy)-4-(2-((5-methyl-2-(4-morpholinopiperidin-1-yl)pyridin-4-yl)amino)pyrimidin-5-yl)benzonitrile] | 7.00 to 8.00
5 | COC1CCC(N2CCC(n3cc(Nc4ncc(-c5ccc(Cl)c(OC(C)Cn6cnnn6)c5)cn4)c(C(F)(F)F)n3)CC2)CC1 (single isomer, unassigned; less polar) [Example 568, (S)-5-(3-((1-(1H-tetrazol-1-yl)propan-2-yl)oxy)-4-chlorophenyl)-N-(1-(1-(cis or trans-4-methoxycyclohexyl)piperidin-4-yl)-3-(trifluoromethyl)-1H-pyrazol-4-yl)pyrimidin-2-amine, less polar] | > 8.00
6 | C[C@@H](Cn1cnnn1)Oc1cc(-c2cnc(Nc3cn(C4CCN(CC#N)CC4)nc3C(F)(F)F)nc2)ccc1Cl [Example 536, (S)-2-(4-(4-((5-(3-((1-(1H-tetrazol-1-yl)propan-2-yl)oxy)-4-chlorophenyl)pyrimidin-2-yl)amino)-3-(trifluoromethyl)-1H-pyrazol-1-yl)piperidin-1-yl)acetonitrile] | 7.00 to 8.00
7 | C[C@@H](Cn1cnnn1)Oc1cc(-c2cnc(Nc3cn(C4CCN(C)CC4)nc3C(F)(F)F)nc2)ccc1Cl [Example 487, (S)-5-(3-((1-(1H-tetrazol-1-yl)propan-2-yl)oxy)-4-chlorophenyl)-N-(1-(1-methylpiperidin-4-yl)-3-(trifluoromethyl)-1H-pyrazol-4-yl)pyrimidin-2-amine] | > 8.00

same assay, conditions: CaMKIIδ binding assay; activity class per Table 2

Row | Compound | pIC50
8 | CC(C)c1nn(C2CC3(C2)CN(C2(C)CCOCC2)C3)cc1Nc1ncc(-c2ccc(Cl)c(O[C@@H](C)Cn3cnnn3)c2)cn1 [Example 960, (S)-5-(3-((1-(1H-tetrazol-1-yl)propan-2-yl)oxy)-4-chlorophenyl)-N-(3-isopropyl-1-(2-(4-methyltetrahydro-2H-pyran-4-yl)-2-azaspiro[3.3]heptan-6-yl)-1H-pyrazol-4-yl)pyrimidin-2-amine] | > 8.00
9 | C[C@@H](Cn1cnnn1)Oc1cc(-c2cnc(Nc3cn(CC4(O)CCNCC4)nc3C(F)(F)F)nc2)ccc1Cl [Example 882, (S)-4-((4-((5-(3-((1-(1H-tetrazol-1-yl)propan-2-yl)oxy)-4-chlorophenyl)pyrimidin-2-yl)amino)-3-(trifluoromethyl)-1H-pyrazol-1-yl)methyl)piperidin-4-ol] | > 8.00
10 | C[C@@H](Cn1cnnn1)Oc1cc(-c2cnc(Nc3cn(C4CC5(C4)CN(C4CCC4)C5)nc3C(F)(F)F)nc2)ccc1Cl [Example 921, (S)-5-(3-((1-(1H-tetrazol-1-yl)propan-2-yl)oxy)-4-chlorophenyl)-N-(1-(2-cyclobutyl-2-azaspiro[3.3]heptan-6-yl)-3-(trifluoromethyl)-1H-pyrazol-4-yl)pyrimidin-2-amine] | > 8.00
11 | CC(=O)OC(C)(C)CN1CC2(CC(n3cc(Nc4ncc(-c5ccc(Cl)c(O[C@@H](C)Cn6cnnn6)c5)cn4)c(C(F)(F)F)n3)C2)C1 [Example 974, (S)-1-(6-(4-((5-(3-((1-(1H-tetrazol-1-yl)propan-2-yl)oxy)-4-chlorophenyl)pyrimidin-2-yl)amino)-3-(trifluoromethyl)-1H-pyrazol-1-yl)-2-azaspiro[3.3]heptan-2-yl)-2-methylpropan-2-yl acetate] | > 8.00
12 | C[C@@H](Cn1cnnn1)Oc1cc(-c2cnc(Nc3cn(Cc4ccc(=O)[nH]c4)nc3OCC(F)(F)F)nc2)ccc1Cl [Example 927, (S)-5-((4-((5-(3-((1-(1H-tetrazol-1-yl)propan-2-yl)oxy)-4-chlorophenyl)pyrimidin-2-yl)amino)-3-(2,2,2-trifluoroethoxy)-1H-pyrazol-1-yl)methyl)pyridin-2(1H)-one] | > 8.00
13 | CC(Cn1cnnn1)Oc1cc(-c2cnc(Nc3cn(CC4(O)CCC(O)CC4)nc3OCC(F)(F)F)nc2)ccc1Cl [Example 907, cis-1-((4-((5-(3-(((S)-1-(1H-tetrazol-1-yl)propan-2-yl)oxy)-4-chlorophenyl)pyrimidin-2-yl)amino)-3-(2,2,2-trifluoroethoxy)-1H-pyrazol-1-yl)methyl)cyclohexane-1,4-diol] | > 8.00

same assay, conditions: Table 2; CaMKIIδ binding assay, activity given as class A/B/C

Row | Compound | pIC50
14 | C[C@@H](Cn1cnnn1)Oc1cc(-c2cnc(Nc3sc4c(c3C#N)CCCC4)nc2)ccc1Cl [Example 752, (S)-2-((5-(3-((1-(1H-tetrazol-1-yl)propan-2-yl)oxy)-4-chlorophenyl)pyrimidin-2-yl)amino)-4,5,6,7-tetrahydrobenzo[b]thiophene-3-carbonitrile] | 7.00 to 8.00
15 | C[C@@H](Cn1cnnn1)Oc1cc(-c2cnc(Nc3cn(C4CCN(C)CC4)nc3OCC(F)F)nc2)ccc1Cl [Example 793, (S)-5-(3-((1-(1H-tetrazol-1-yl)propan-2-yl)oxy)-4-chlorophenyl)-N-(3-(2,2-difluoroethoxy)-1-(1-methylpiperidin-4-yl)-1H-pyrazol-4-yl)pyrimidin-2-amine] | > 8.00
16 | C[C@@H](CO)Cn1cc(Nc2ncc(-c3ccc(Cl)c(O[C@@H](C)Cn4cnnn4)c3)cn2)c(OCC(F)(F)F)n1 [Example 784, (R)-3-(4-((5-(3-(((S)-1-(1H-tetrazol-1-yl)propan-2-yl)oxy)-4-chlorophenyl)pyrimidin-2-yl)amino)-3-(2,2,2-trifluoroethoxy)-1H-pyrazol-1-yl)-2-methylpropan-1-ol] | > 8.00
17 | C[C@@H](Cn1cnnn1)Oc1cc(-c2cnc(Nc3cn(C4CCN(C5CCOCC5)CC4)nc3C(F)F)nc2)ccc1Cl [Example 769, (S)-5-(3-((1-(1H-tetrazol-1-yl)propan-2-yl)oxy)-4-chlorophenyl)-N-(3-(difluoromethyl)-1-(1-(tetrahydro-2H-pyran-4-yl)piperidin-4-yl)-1H-pyrazol-4-yl)pyrimidin-2-amine] | > 8.00
18 | C[C@@H](Cn1cnnn1)Oc1cc(-c2cnc(Nc3cn([C@H]4CC[C@@H](N5CC(O)(C(F)(F)F)C5)CC4)nc3C(F)(F)F)nc2)ccc1Cl [Example 856, 1-(cis-4-(4-((5-(3-(((S)-1-(1H-tetrazol-1-yl)propan-2-yl)oxy)-4-chlorophenyl)pyrimidin-2-yl)amino)-3-(trifluoromethyl)-1H-pyrazol-1-yl)cyclohexyl)-3-(trifluoromethyl)azetidin-3-ol] | 7.00 to 8.00
19 | Cc1ccc(-c2cnc(Nc3cn(C4CCN(C5CCOCC5)CC4)nc3OCC(F)(F)F)nc2)cc1O[C@@H](C)Cn1cnnn1 [Example 788, (S)-5-(3-((1-(1H-tetrazol-1-yl)propan-2-yl)oxy)-4-methylphenyl)-N-(1-(1-(tetrahydro-2H-pyran-4-yl)piperidin-4-yl)-3-(2,2,2-trifluoroethoxy)-1H-pyrazol-4-yl)pyrimidin-2-amine] | > 8.00
20 | C[C@@H](Cn1cnnn1)Oc1cc(-c2cnc(Nc3ccnn3C)nc2)ccc1Cl [Example 735, (S)-5-(3-((1-(1H-tetrazol-1-yl)propan-2-yl)oxy)-4-chlorophenyl)-N-(1-methyl-1H-pyrazol-5-yl)pyrimidin-2-amine] | 7.00 to 8.00
21 | C[C@@H](Cn1cnnn1)Oc1cc(-c2cnc(Nc3cn([C@H]4CC[C@H](N5CCOCC5)CC4)nc3OC3COC3)nc2)ccc1Cl [Example 821, 5-(3-(((S)-1-(1H-tetrazol-1-yl)propan-2-yl)oxy)-4-chlorophenyl)-N-(1-(trans-4-morpholinocyclohexyl)-3-(oxetan-3-yloxy)-1H-pyrazol-4-yl)pyrimidin-2-amine] | > 8.00
22 | C[C@@H](Cn1cccn1)Oc1cc(-c2cnc(Nc3cn([C@H]4CC[C@H](N5CCOCC5)CC4)nc3OCC(F)(F)F)nc2)ccc1C#N [Example 798, 2-(((S)-1-(1H-pyrazol-1-yl)propan-2-yl)oxy)-4-(2-((1-(trans-4-morpholinocyclohexyl)-3-(2,2,2-trifluoroethoxy)-1H-pyrazol-4-yl)amino)pyrimidin-5-yl)benzonitrile] | > 8.00

same assay, conditions: Table 2; activity class for CaMKIIδ

Row | Compound | pIC50
23 | C[C@@H](CO)Cn1cc(Nc2ncc(-c3ccc(Cl)c(O[C@@H](C)Cn4cnnn4)c3)cn2)c(C(F)(F)F)n1 [Example 730, (R)-3-(4-((5-(3-(((S)-1-(1H-tetrazol-1-yl)propan-2-yl)oxy)-4-chlorophenyl)pyrimidin-2-yl)amino)-3-(trifluoromethyl)-1H-pyrazol-1-yl)-2-methylpropan-1-ol] | 7.00 to 8.00
24 | COc1cc(N2CCN(C3CCOCC3)CC2)cnc1Nc1ncc(-c2ccc(Cl)c(O[C@@H](C)Cn3cnnn3)c2)cn1 [Example 647, (S)-5-(3-((1-(1H-tetrazol-1-yl)propan-2-yl)oxy)-4-chlorophenyl)-N-(3-methoxy-5-(4-(tetrahydro-2H-pyran-4-yl)piperazin-1-yl)pyridin-2-yl)pyrimidin-2-amine] | 7.00 to 8.00
